One assay relates to C. albicans. Description: Anti-fungal activity (MIC) against C. albicans. In kind it is cell-based, Candida albicans. To be noted: for MIC: Candida albicans. As for the experimental part: The compositions of the present invention usually have an anti-microbial effect, e.g., anti-G^+ bacteria activity, anti-G^− bacteria activity, anti-fungus activity or effect on bacterial quorum sensing. Methods or assays for testing the anti-microbial activity of a composition are readily available to one skilled in the art. For example, compositions of the present invention can be incubated with a bacterial or fungous culture, and the bacterial or fungous growth can be subsequently examined with a plate reader. Compositions of the present invention can also be examined for their effect on bacterial quorum sensing using either an acyl-homoserine lactone quorum sensing reporter system or a luxS quorum sensing reporter system.
(§1) Bioassays were conducted to further characterize these two compounds.

Assay [1] concerns Clinical isolated drug-resistant C. albicans. Description: Sensitivity of clinical isolated drug-resistant C. albicans. In kind it is cell-based, Candida albicans. Here is the method:
as §1

Another assay deals with S. mutans. Description: Anti-bacterial activity (MIC) against S. mutans. Type of assay: cell-based, Streptococcus mutans. Conditions: for MIC: Streptococcus mutans.
In assay [2] the test system is Vancomycin resistant Enterococci. Description: Sensitivity of Vancomycin resistant Enterococci. Type of assay: cell-based.
The test system of assay [3] is methicillin resistant Staphylococcus aureus. Description: Sensitivity of methicillin resistant Staphylococcus aureus. Type of assay: cell-based.
For a further assay, the system named is bacteria. Description: Enhancement of activity of other antibiotics (synergistic effect) in the bioassay. In kind it is cell-based. From the text: Perilla was selected for two types of bioactivity. […] The second is its ability to enhance other antibacterial activities through some kind of synergistic effect. When the crude extract was mixed with antibiotics in the bioassay, it could enhance the activity of other antibiotics at a concentration at least 10 times lower than its MIC.

A word on the MIC: it is the smallest concentration in the dilution series that meets the test's criterion for growth inhibition. A high value points to a less susceptible organism.

≈ marks a conversion by molar mass, not a printed value.

`CC1OC(OC2C(O)[C@H](OC3OC(C)C(O)C(O)C3O)C(CO)O[C@H]2O[C@H]2CC[C@@]3(C)C(=CCC4C5CC6OC7(CC[C@@H](C)CO7)[C@@H](C)C6[C@@]5(C)CCC43)C2)C(O)C(O)C1O` (stereo partly drawn) [Dioscin, (3β,25R)-spirost-5-en-3-yl O-6-deoxy-α-L-mannopyranosyl-(1→2)-O-[6-deoxy-α-L-mannopyranosyl-(1→4)]-β-D-glucopyranoside]: in the assay with C. albicans, the fungicidal effect result is “fungicidal effect” and the MIC was about 4 µg/mL (≈ 4.6 µM). Besides, the “sensitivity of clinical isolated drug-resistant C. albicans to treatment” value in assay [1] is reported as “still sensitive”.
In turn, `CC/C=C\C/C=C\C/C=C\CCCCCCCC(=O)O` [Linolenic acid, (9Z,12Z,15Z)-9,12,15-octadecatrienoic acid] showed an MIC in the assay on S. mutans of 10 µg/mL (≈ 35.9 µM).
As for `CC1OC(OC2[C@H](O[C@H]3CC[C@@]4(C)C(=CCC5C6CC7OC8(CC[C@@H](C)CO8)[C@@H](C)C7[C@@]6(C)CCC54)C3)OC(CO)[C@@H](O[C@@H]3O[C@@H](CO)[C@@H](O)[C@H]3O)[C@@H]2O)C(O)C(O)C1O` (stereo partly drawn) [Polyphyllin D, (3β,25R)-spirost-5-en-3-yl O-α-L-arabinofuranosyl-(1→4)-O-[6-deoxy-α-L-mannopyranosyl-(1→2)]-β-D-glucopyranoside], in the assay on C. albicans, the fungicidal effect result is “fungicidal effect” and the MIC was about 2 µg/mL (≈ 2.34 µM). Besides, in assay [1], the “sensitivity of clinical isolated drug-resistant C. albicans to treatment” value is reported as “still sensitive”.
In turn, `C=C(C)[C@H](CC=C(C)C)Cc1c(O)cc(OC)c2c1O[C@H](c1ccc(O)cc1O)CC2=O` [kurarinone, 2-(2,4-dihydroxyphenyl)-2,3-dihydro-7-hydroxy-5-methoxy-8-[5-methyl-2-(1-methylethenyl)-4-hexenyl]-4H-1-benzopyran-4-one] returned an MIC in the assay with S. mutans of 4 µg/mL (≈ 9.12 µM). Further, in the assay with S. mutans (organism not given), the bactericidal effect result was “bactericidal effect”. Besides, the “sensitivity of antimicrobial activity to environmental changes” value in the assay with S. mutans (pH (4.8-7.4), salt composition (Na, K, Ca), salt concentrations, oxygen levels (anaerobic and aerobic), temperature (120° C.)) was “insensitive”. In assay [2], the “sensitivity of Vancomycin resistant Enterococci to the compound” value is on record as “sensitive”. Further, the “sensitivity of methicillin resistant Staphylococcus aureus to the compound” value in assay [3] is reported as “sensitive”.
`C=C(C)C1CC=C(C=O)CC1` (centres unmarked) [perillaldehyde, 4-(1-methylethenyl)-1-cyclohexene-1-carboxaldehyde] came in with an MIC against S. mutans of 10000 µg/mL (≈ 66600 µM). For the same compound, the “ability to enhance activity of other antibiotics” value in the assay with bacteria was “enhance activity of other antibiotics in a dose-dependent manner”.

The record behind these values is patent US7875598B2, “Compositions useful for the treatment of microbial infections” (The Regents of the University of California, priority 2004, dated 2011).
